pEC50: −log10 of the molar value.
Experiments:
Adenosine receptor A1 = target: T1, Adenosine receptor A1 (Cavia porcellus, UniProt P47745); experiment: Agonistic activity against adenosine A1 receptor in guinea pig isolated hearts; format: functional
T1 sequence (P47745 whole entry): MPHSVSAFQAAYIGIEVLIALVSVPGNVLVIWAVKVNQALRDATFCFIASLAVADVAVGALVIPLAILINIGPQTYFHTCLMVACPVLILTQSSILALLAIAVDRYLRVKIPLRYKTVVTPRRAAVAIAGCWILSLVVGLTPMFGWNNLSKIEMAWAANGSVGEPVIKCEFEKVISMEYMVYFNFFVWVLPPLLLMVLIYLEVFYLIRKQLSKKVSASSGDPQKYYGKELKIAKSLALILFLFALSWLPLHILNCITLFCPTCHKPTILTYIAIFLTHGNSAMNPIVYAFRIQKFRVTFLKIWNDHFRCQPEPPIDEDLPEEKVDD

[1] = Elimination half-life after oral administration at a dose of 2 mg/kg in rat; format: ADME, organism-based; design: dose 2 mg/kg, route oral; conditions: in vivo
[2] = target: T2, Adenosine receptor A1 (Cavia porcellus) (UniProt P47745); experiment: Binding affinity against adenosine A1 receptor using [3H]CCPA in guinea pig DDT membrane; 12.7+/-1.5
T2 sequence (whole entry): T1 sequence (P47745 whole entry)

[3] = Cmax after oral administration at a dose of 2 mg/kg in rat; format: ADME, organism-based; design: dose 2 mg/kg, route oral; conditions: in vivo
[4] = Bioavailability after oral administration at a dose of 2 mg/kg in rat; format: ADME, organism-based; conditions: in vivo
[5] = Plasma clearance after IV dosing at 0.5 mg/kg in rat; format: ADME, organism-based; design: dose 0.5 mg/kg, route intravenous; conditions: read-out: Clp
[6] = target: T2, Adenosine receptor A1 (Cavia porcellus); experiment: Binding affinity against […] using [35S]GTP-gamma-S, radioligand in guinea pig.; format: functional
[7] = target: T2, Adenosine receptor A1 (Cavia porcellus); experiment: Binding affinity against adenosine A1 receptor using [3H]CPX in guinea pig DDT membrane; 117+/-46
[8] = Elimination half-life after IV dosing at 0.5 mg/kg in rat; format: ADME, organism-based; design: dose 0.5 mg/kg, route intravenous; conditions: in vivo
[9] = Plasma clearance after IV dosing at 1 mg/kg in rat; format: ADME, organism-based; design: dose 1 mg/kg, route intravenous; conditions: read-out: Clp
[10] = target: T2, Adenosine receptor A1 (Cavia porcellus)
[11] = Elimination half-life after IV dosing at 1 mg/kg in rat; format: ADME, organism-based; design: dose 1 mg/kg, route intravenous; conditions: in vivo
[12] = target: T2, Adenosine receptor A1 (Cavia porcellus); remark: listed apart in the source
[13] = Bioavailability after oral administration at a dose of 4 mg/kg in rat; format: ADME, organism-based; conditions: in vivo
[14] = Cmax after oral administration at a dose of 4 mg/kg in rat; format: ADME, organism-based; design: dose 4 mg/kg, route oral; conditions: in vivo
[15] = Elimination half-life after oral administration at a dose of 4 mg/kg in rat; format: ADME, organism-based; design: dose 4 mg/kg, route oral; conditions: in vivo

Row | pEC50 (Adenosine receptor A1) | half-life [1] | Ki high [2] | Cmax [3] | bioavailability [4] | clearance [5] | efficacy relative to CPA [6] | Ki low [7] | half-life [8] | clearance [9] | Ki low [10] | half-life [11] | Ki high [12] | bioavailability [13] | Cmax [14] | half-life [15] | SMILES
1 | 6.70 | 96 min | 12.7 nM | 60.3 ng/mL | 81% | 202 mL/min/kg | 78% | 117 nM | 18 min | – | – | – | – | – | – | – | OC1[C@@H](O)C(n2cnc3c(NC4CCOC4)ncnc32)O[C@@H]1COc1ccccc1F (single isomer, unassigned)
2 | 5.90 | – | – | – | – | – | 72% | – | – | 69.4 mL/min/kg | 506 nM | 24 min | 79 nM | 12.3% | 107 ng/mL | 78 min | OC1[C@@H](O)C(n2cnc3c(NC4CCOC4)ncnc32)O[C@@H]1CSc1ccccc1F (single isomer, unassigned)
